# Results reported in patent publication US20180031580A1, “USE OF IGF-1 AS PROGNOSTIC FACTOR IN CALCIFICATION OF AORTIC VALVES” (THE ASAN FOUNDATION, priority 2015, published 2018).
# Tested on: aortic valve vascular smooth muscle tissue
# Experiment: ALP staining of aortic valve vascular smooth muscle tissue, osteocytogenesis level
# Assay type: in vivo, mice
# Conditions: wild-type or eNOS-deficient mice treated with IGF-1 alone; FIG. 2a
# Experimental: Wild-type mice or eNOS-deficient mice which are animal models with the aortic valve calcification were treated with insulin-like growth factor type 1 (IGF-1) alone or treated with dipeptidyl-peptidase 4 (DPP-4) and IGF-1 at the same time. Then, ALP staining was performed on the aortic valve vascular smooth muscle tissue, thereby comparing the […] level of tissue (FIG. 2a). Here, the aortic valve vascular smooth muscle tissue of the wild-type mice treated with nothing or the eNOS-deficient mice was used as a control group.
# FIG. 2a are an image and a graph showing verification of the effect of DPP-4 on an action of IGF-1 inhibiting osteocytogenesis in the aortic valve vascular smooth muscle tissue of the wild-type mice or the eNOS-deficient mice.
substance,measurement,value
IGF-1: polypeptide having a size of about 7.5 kDa present in a plasma of mammals; SEQ ID NO: 1,osteocytogenesis of aortic valve vascular smooth muscle tissue (ALP staining),tended to be alleviated
